Measurements as given in ChEMBL document CHEMBL1149026, “Ohioensins and pallidisetins: novel cytotoxic agents from the moss Polytrichum pallidisetum” (1994).
Values after ≈ are worked out from the molar mass of the structure shown.

Legend:
Type in all cases: functional
Conditions in all cases: read-out: ED50 (the source's name)
RPMI-7951 = test: Cytotoxicity against human RPMI7951 cells
U-251 = test: Cytotoxicity against human U251 cells
HT-29 = test: Cytotoxicity against human HT-29 cells
A549 = test: Cytotoxicity against human A549 cells

| Structure (SMILES) | EC50 (RPMI-7951) [µg/mL] | EC50 (U-251) [µg/mL] | EC50 (HT-29) [µg/mL] | EC50 (A549) [µg/mL] |
| --- | --- | --- | --- | --- |
| O=C(/C=C\c1ccccc1)c1cc(O)cc2c1CC(c1ccccc1)O2 (stereo not given) [PALLIDISETIN B] | 2 (≈ 5.84 µM) | 2 (≈ 5.84 µM) |  |  |
| O=C(/C=C/c1ccccc1)c1cc(O)cc2c1CC(c1ccccc1)O2 (stereo not given) [PALLIDISETIN A] | 1 (≈ 2.92 µM) | 1 (≈ 2.92 µM) |  |  |
| COc1cc(OC)c2c3c1C(=O)C[C@@H]1c4ccccc4O[C@@H](c4cccc(O)c4-2)[C@H]31 [1-O-METHYLOHIOENSIN B] | 1 (≈ 2.5 µM) | 2 (≈ 4.99 µM) | 1 (≈ 2.5 µM) |  |
| COc1cc(OC)c2c3c1-c1c(O)cccc1[C@@H]1Oc4ccccc4[C@@H](C[C@@H]2OC)[C@@H]31 [1,14-DI-O-METHYLDIHYDROOHIOENSIN B] | 1 (≈ 2.4 µM) |  |  | 1 (≈ 2.4 µM) |
| COc1cc(OC)c2c3c1-c1c(O)cccc1[C@@H]1Oc4ccccc4[C@@H](C[C@@H]2O)[C@@H]31 [1-O-METHYLDIHYDROOHIOENSIN B] |  | 0.8 (≈ 1.99 µM) |  |  |
